In data set [1] the test system is MCF-7 human mammary cell tumor culture. To be noted: Bhatnagar et al.; cited from earlier work.
The target of the next data set is T1, mRARα (Mus musculus, UniProt P11416).
T1 construct: made in house; host or cells: Spodoptera frugiperda insect cells, baculovirus (whole cell extract)
T1 sequence (P11416 1-462): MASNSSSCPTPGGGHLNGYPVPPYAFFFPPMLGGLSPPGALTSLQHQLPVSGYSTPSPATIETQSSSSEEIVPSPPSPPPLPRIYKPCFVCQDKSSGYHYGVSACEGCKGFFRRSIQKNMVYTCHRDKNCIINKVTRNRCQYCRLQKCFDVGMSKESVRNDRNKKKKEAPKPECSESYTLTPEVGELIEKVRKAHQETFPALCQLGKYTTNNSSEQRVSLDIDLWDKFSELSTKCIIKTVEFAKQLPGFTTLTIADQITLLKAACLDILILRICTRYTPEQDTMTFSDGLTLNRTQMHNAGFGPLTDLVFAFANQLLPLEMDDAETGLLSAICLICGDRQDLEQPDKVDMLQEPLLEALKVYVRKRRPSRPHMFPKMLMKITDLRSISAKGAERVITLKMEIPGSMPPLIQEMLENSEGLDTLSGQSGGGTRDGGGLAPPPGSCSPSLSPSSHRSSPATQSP
The data set is described as follows: Drug competition with (3H)retinoic acid binding, mRARα. To be noted: read-out: percent reduction of binding of the (3H)retinoic acid, mRARα; 1 μM drug; 5 nM [3H]RA.

A further data set concerns the target T2, mRARγ (Mus musculus, UniProt P18911).
T2 construct: made in house; host or cells: Spodoptera frugiperda insect cells, baculovirus (whole cell extract)
T2 sequence (P18911 1-458): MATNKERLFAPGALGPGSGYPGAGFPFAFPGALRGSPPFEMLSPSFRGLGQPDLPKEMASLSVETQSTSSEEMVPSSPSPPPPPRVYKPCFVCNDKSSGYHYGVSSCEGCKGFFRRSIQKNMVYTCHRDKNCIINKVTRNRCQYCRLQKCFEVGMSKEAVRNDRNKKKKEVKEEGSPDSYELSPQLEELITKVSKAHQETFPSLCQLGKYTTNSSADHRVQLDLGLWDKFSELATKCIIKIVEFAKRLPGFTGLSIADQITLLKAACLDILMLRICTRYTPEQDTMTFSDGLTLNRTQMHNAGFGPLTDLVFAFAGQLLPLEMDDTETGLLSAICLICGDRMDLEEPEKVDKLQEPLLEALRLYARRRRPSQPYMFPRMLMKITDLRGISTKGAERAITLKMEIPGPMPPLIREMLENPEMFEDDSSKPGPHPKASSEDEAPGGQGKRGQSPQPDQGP
The data set is described as follows: Drug competition with (3H)retinoic acid binding, mRARγ. To be noted: read-out: percent reduction of binding of the (3H)retinoic acid, mRARγ; 1 μM drug; 5 nM [3H]RA.

Data set [2] can be described thus: Acid stability, 0.1N methanolic HCl at 37° C. for 2 hours. It is filed as physicochemical. Here is the method:
To determine the stability of the C-glucopyranosiduronate linkage towards acidic conditions, samples of 4-HPR-O-glucuronide, 4-(retinamido)phenyl-C-glucuronide and 4-(retinamido)benzyl-C-glucuronide were treated with 0.1N methanolic HCl at 37° C. for 2 hours.

For data set [3] the following is noted: background statement; cited from earlier work.
Data set [4] concerns the target T3, β-glucuronidase (Homo sapiens, UniProt P08236).
T3 sequence (P08236 23-651): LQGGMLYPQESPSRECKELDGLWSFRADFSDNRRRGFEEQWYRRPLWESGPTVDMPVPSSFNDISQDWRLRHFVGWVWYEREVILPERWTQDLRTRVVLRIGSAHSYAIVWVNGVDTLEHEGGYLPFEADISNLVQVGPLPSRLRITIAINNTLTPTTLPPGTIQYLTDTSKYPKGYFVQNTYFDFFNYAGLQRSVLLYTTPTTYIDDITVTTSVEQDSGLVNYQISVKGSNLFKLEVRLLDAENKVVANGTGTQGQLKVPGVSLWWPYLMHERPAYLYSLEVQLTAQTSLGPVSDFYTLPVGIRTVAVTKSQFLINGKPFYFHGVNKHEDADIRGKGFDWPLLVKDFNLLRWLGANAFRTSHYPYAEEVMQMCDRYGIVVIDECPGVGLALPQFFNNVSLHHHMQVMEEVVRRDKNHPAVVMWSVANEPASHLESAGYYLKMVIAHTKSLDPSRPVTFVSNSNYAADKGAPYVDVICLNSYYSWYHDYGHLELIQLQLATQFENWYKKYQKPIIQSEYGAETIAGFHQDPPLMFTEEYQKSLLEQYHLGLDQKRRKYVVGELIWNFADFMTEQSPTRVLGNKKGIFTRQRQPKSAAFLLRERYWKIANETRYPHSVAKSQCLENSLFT
To be noted: background statement; cited from earlier work.

Data set [5] addresses T3, β-glucuronidase. In words: Stability toward β-glucuronidase mediated hydrolysis. It is filed as in vitro ADME. To be noted: β-glucuronidase. Here is the method:
Similarly 1-(D-glucopyranosyluronosyl) retinamide and RAG were evaluated for their stability toward β-glucuronidase medicated hydrolysis under the same conditions as described above.

The next data set addresses T4, mRARβ (Mus musculus, UniProt P22605).
T4 construct: made in house; host or cells: Spodoptera frugiperda insect cells, baculovirus (whole cell extract)
T4 sequence (P22605 1-448 isoform P22605-3): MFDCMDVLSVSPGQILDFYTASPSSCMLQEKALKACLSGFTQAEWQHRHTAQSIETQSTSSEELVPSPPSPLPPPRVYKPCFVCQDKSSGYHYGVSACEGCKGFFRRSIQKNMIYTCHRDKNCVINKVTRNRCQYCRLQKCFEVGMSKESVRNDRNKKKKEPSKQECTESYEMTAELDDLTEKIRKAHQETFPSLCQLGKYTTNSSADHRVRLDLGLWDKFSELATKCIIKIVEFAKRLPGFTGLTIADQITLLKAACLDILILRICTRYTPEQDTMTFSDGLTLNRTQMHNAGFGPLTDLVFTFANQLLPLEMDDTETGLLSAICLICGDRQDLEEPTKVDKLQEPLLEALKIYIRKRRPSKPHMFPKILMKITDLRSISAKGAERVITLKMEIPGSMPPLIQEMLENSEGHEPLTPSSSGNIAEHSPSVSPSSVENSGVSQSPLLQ
The data set is described as follows: Drug competition with (3H)retinoic acid binding, mRARβ. To be noted: read-out: percent reduction of binding of the (3H)retinoic acid, mRARβ; 1 μM drug; 5 nM [3H]RA.

Like-named read-outs stand apart in the source and are kept apart here.

Turning to `CC1=C(/C=C/C(C)=C/C=C/C(C)=C/C(=O)Nc2ccc(O[C@@H]3O[C@H](C(=O)O)[C@@H](O)[C@H](O)[C@H]3O)cc2)C(C)(C)CCC1` [4-HPR-O-glucuronide, N-(4-hydroxyphenyl)retinamide-O-glucuronide], the “antiproliferative activity and toxicity vs 4-HPR” value in data set [1] is “greater antiproliferative activity and less toxicity”. Further, the inhibition at 1 µM on mRARα was determined as 14%; at mRARγ, 7%; on mRARβ, 4%. Further, in data set [2], the “acid hydrolysis (stability)” value was “had undergone substantial hydrolysis of the ether linkage”. In data set [3], the “stability in acidic media” value was “hydrolyzed in acidic media”. Besides, the “hydrolysis by β-glucuronidase” value at β-glucuronidase [4] was “also by the enzyme β-glucuronidase”; on β-glucuronidase [5] it was “is hydrolysed to glucuronic acid and the aglycone by β-glucuronidase”. For the same compound, the “in vivo half life” value on β-glucuronidase [4] was “quite limited”.

The values above are taken from patent US5599953A, “C-glycoside analogues of N-(4-hydroxyphenyl)retinamide-O-glucuronide” (The Ohio State Research Foundation, priority 1995, dated 1997).
